Experimental data reported in US5973229A, “Gene encoding herbicide safener binding protein” (Board of Trustees Operating Michigan State University, priority 1997, dated 1999).

Legend:
[1] = test system: safener binding activity (SafBA) / SafBP; details: cited from earlier work; for IC50: maize SafBA, from Walton and Casida 1995, read-out: IC50 (inhibitor concentration that reduces specific [3H]Saf binding by 50%)
[2] = molecular target: T1, SafBP (SBP1 expressed in E. coli) (Zea mays, UniProt O49010); assay: [3H]Saf binding in extracts of E. coli expressing SBP1; set-up: species or system maize (Zea mays L.); details: for Total [3H]Saf binding: E. coli/SBP1 2-hr extract, 20.9 μg protein, [3H]R-29148 alone 67.3, average of duplicates
T1 construct: possible vector-derived N-terminal residues
T1 sequence (O49010 1-363): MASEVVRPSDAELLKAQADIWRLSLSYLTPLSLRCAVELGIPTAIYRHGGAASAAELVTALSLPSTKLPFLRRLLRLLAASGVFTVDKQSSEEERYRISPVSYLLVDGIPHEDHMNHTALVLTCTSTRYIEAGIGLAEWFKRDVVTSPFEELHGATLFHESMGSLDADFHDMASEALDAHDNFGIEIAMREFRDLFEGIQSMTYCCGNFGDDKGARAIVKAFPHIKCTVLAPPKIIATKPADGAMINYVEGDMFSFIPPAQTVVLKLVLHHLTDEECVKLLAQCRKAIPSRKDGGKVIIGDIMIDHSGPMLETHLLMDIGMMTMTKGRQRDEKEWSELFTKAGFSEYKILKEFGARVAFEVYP
Description: Binding Assay. Racemic R-29148 (Saf) and [^3 H]Saf (specific activity 15 Ci/mmol) were prepared according to Latli, B. et al., J. Labelled Cmpd Radiopharmn. 36:147-155 (1995). The sources of other chemicals are given in Walton, J. D. and Casida, J. E., Plant Physiol. 109:213-219 (1995). [^3 H]Saf binding was measured by incubating extracts with ca. 400,000 cpm of [^3 H]Saf in 50 mM Tris-HCl, pH 8, in a total volume of 1 mL for 60 min at 22° C. The extracts were then filtered through GF/A (Whatman) glass fiber filters that had been soaked in 0.3% polyethylenimine, the filters rinsed with water, and radioactivity retained on the filters measured by scintillation counting. Walton, J. D. and Casida, J. E., Plant Physiol. 109:213-219 (1995).
Expression of SafBP in E. coli. Vector pZL1 (Gibco-BRL) containing the SafBP cDNA clone was digested with EcoRI and NotI, the 1.5-kb insert cloned into the corresponding sites in the E. coli expression vector pET21c (Novagen, Madison, Wis.), and the resulting construct transformed into E. coli strain BL21(DE3) (Novagen). A 50-mL culture of this strain was grown at 37° C. to an OD600 of 0.5 at which point expression of the cDNA was induced with 1 mM isopropylthiogalactoside (IPTG). As a control, E. coli BL21(DE3) transformed with pET21c with no insert was grown in parallel. Samples (each 12.5 mL) were removed at 0, 1, 2, and 3 hr after induction, centrifuged, and extracted by the freeze-thaw method according to Novagen, and centrifuged again to remove cell debris. Each sample was in a final volume of 5 mL of 50 mM Tris-HCl, pH 8; 50 μL of this was used in the [^3 H]Saf binding assay according to Walton and Casida. Walton, J. D. and Casida, J. E., Plant Physiol. 109:213-219 (1995).
SBP1 was expressed in E. coil behind an IPTG-inducible promoter. Extracts of E. coil expressing SBP1 have strong SafBA whereas cells transformed with the empty expression vector have no binding (Table II). […] After growing to an OD600 of 0.5, cells were induced with IPTG and aliquots harvested at the indicated times after induction, lysed, and centrifuged to remove cell debris. Final volume of each extract was 5 mL. Control cells were transformed with the vector without insert. Values are the average of duplicates. Like [^3 H]Saf binding to the native maize protein, [^3 H]Saf binding in E. coli extracts is inhibited by dichlormid, EPTC, metolachlor, acetochlor, and alachlor (Table III). Table III provides inhibition of [^3 H]Saf binding by safeners and herbicides in extracts of E. coli expressing SBP1. The E.coli/SBP1 2-hr time point from […] was used; protein content per sample was 20.9 μg. Values are the average of duplicates.

[3] = competitor Concentration 1.1 (unit not given)

## CCSC(=O)N(CC(C)C)CC(C)C [butylate]
[1]
  SafBP binds herbicide: binds

## C=CCN(CC=C)C(=O)C(Cl)Cl [dichlormid]
[2]
  Inhibition of R-29148 binding in extracts of E. coli cells expressing SBP1: competitively inhibited
[2]; competitor Concentration 1.4 (unit not given)
  Total [3H]Saf binding: 0.7
[1]
  IC50: 10 nM

## CCSC(=O)N(CC)C1CCCCC1 [cycloate]
[1]
  SafBP binds herbicide: binds

## CCOCN(C(=O)CCl)c1c(C)cccc1CC [acetochlor]
[2]
  Inhibition of R-29148 binding in extracts of E. coli cells expressing SBP1: inhibited
[2]; [3]
  Total [3H]Saf binding: 21.6
[1]
  SafBP binds herbicide: binds
  IC50: 180 nM

## CCCN(CCC)C(=O)SCC [EPTC, S-ethyl dipropylthiocarbamate]
[2]
  Inhibition of R-29148 binding in extracts of E. coli cells expressing SBP1: competitively inhibited
[2]; competitor Concentration 1.6 (unit not given)
  Total [3H]Saf binding: 1.7
[1]
  SafBP binds herbicide: binds
  IC50: 110 nM

## CCc1cccc(C)c1N(C(=O)CCl)C(C)COC (centres unmarked) [metolachlor]
[2]
  Inhibition of R-29148 binding in extracts of E. coli cells expressing SBP1: competitively inhibited
[2]; [3]
  Total [3H]Saf binding: 3.3
[1]
  SafBP binds herbicide: binds
  IC50: 40 nM

## CC(C)N(C(=O)SCC(Cl)=C(Cl)Cl)C(C)C [triallate]
[1]
  SafBP binds herbicide: binds

## CC1CN(C(=O)C(Cl)Cl)C(C)(C)O1 (racemic) [R-29148, (R,S)-3-dichloroacetyl-2,2,5-trimethyloxazolidine]
[2]; competitor Concentration 2.5 (unit not given)
  Total [3H]Saf binding: 3.0
[1]
  IC50: 120 nM
[1]; soluble, high affinity binding activity in extracts of etiolated maize seedlings, read-out: Kd of safener binding activity (SafBA) for [3H]Saf
  Kd: 120 nM

## CCc1cccc(CC)c1N(COC)C(=O)CCl [alachlor]
[2]
  Inhibition of R-29148 binding in extracts of E. coli cells expressing SBP1: competitively inhibited
[2]; [3]
  Total [3H]Saf binding: 1.7
[1]
  SafBP binds herbicide: binds
  IC50: 70 nM

## CC(C)N(C(=O)CCl)c1ccccc1 [propachlor]
[1]
  SafBP binds herbicide: binds
